Reference: ChEMBL document CHEMBL4831536, “Neuroregenerative Potential of Prenyl- and Pyranochalcones: A Structure-Activity Study” (J Nat Prod, 2021)
Active and inactive are the calls of the source. The rule behind the calls is not given here.

Key:
MEF [1] = assay: Cytotoxicity against NMRI mouse MEF cells assessed as effect on cell proliferation by measuring effect on renilla activity at 10 uM incubated for 3 days by luminescence based analysis; details: 72 h, time 3 day
MEF [2] = assay: Neuro-regenerative activity in NMRI mouse MEF cells transfected with human DCX promoter-driven firefly luciferase reporter assessed as induction of neuronal differentiation at 10 uM incubated for 3 days by luciferase reporter gene based luminescence analysis relative to control; assay type: functional; details: time 3 day
MEF [3] = assay: Neuro-regenerative activity in NMRI mouse MEF cells transfected with human DCX promoter-driven firefly luciferase reporter assessed as induction of neuronal differentiation at 10 uM incubated for 3 days by luciferase reporter gene based luminescence analysis; assay type: functional, cell-based; details: time 3.0 day

SMILES | Activity (MEF [1]) | Ratio (MEF [2]) | Activity (MEF [3])
COc1cc(O)c(CC=C(C)C)c(O)c1C(=O)/C=C/c1ccc(O)cc1 [XANTHOHUMOL] | Toxic | 5.55 | 
COc1cc2c(c(O)c1C(=O)/C=C/c1ccc3c(c1)OCO3)C=CC(C)(C)O2 |  |  | Active
COc1ccc(/C=C/C(=O)c2c(OC)cc3c(c2O)C=CC(C)(C)O3)cc1 |  |  | Active
COc1cc2c(c(O)c1C(=O)/C=C/c1ccc(O)cc1)CCC(C)(C)O2 |  |  | Active
COc1cc2c(c(O)c1C(=O)/C=C/c1ccc(O)c(O)c1)C=CC(C)(C)O2 | Non-Toxic |  | Active
CC1(C)C=Cc2c(cc(O)c3c2OC(c2ccc(O)cc2)CC3=O)O1 (stereo not drawn) |  |  | Active
CC1(C)C=Cc2c(cc3c(c2O)C(=O)CC(c2ccc(O)cc2)O3)O1 (stereo not drawn) |  |  | Active
COc1cc2c(c3c1C(=O)CC(c1ccc(O)cc1)O3)C=CC(C)(C)O2 (stereo not drawn) |  |  | Active
COc1cc2c(c(O)c1C(=O)/C=C/c1ccc(O)cc1)C=CC(C)(CCC=C(C)C)O2 (stereo not drawn) |  |  | inactive
COc1cc2c(c(O)c1C(=O)/C=C/c1ccc(O)cc1)C=CC(C)(C)O2 [XANTHOHUMOL C] | Non-Toxic | 1.56 | 
